Patent US20260174682A1, “GAMMA-AMINOBUTYRIC ACID DERIVATIVE COMPRISING POLYCYCLIC STRUCTURE, METHOD FOR PREPARING SAME, AND USE THEREOF” (ZHONGSHAN INSTITUTE FOR DRUG DISCOVERY, SIMM, CAS., priority 2022, published 2026)
Several values for one entry are separate records, joined by “and”; a condition that tells them apart may be missing. Identical values can stand only once.

Tests used:
postherpetic neuralgia = conditions: 150-600 mg per day; cited from earlier work
[1] = molecular target: T1, human recombinant calcium ion channel Cav2.2/β3/α2δ-1 (Homo sapiens, UniProt P54289); test: In vitro binding to human recombinant calcium ion channel Cav2.2/β3/α2δ-1 ([3H]gabapentin competition)
T1 construct: expressed in transfected cells; host or cells: CHO cells (membranes)
T1 sequence (P54289 25-956 limits assumed): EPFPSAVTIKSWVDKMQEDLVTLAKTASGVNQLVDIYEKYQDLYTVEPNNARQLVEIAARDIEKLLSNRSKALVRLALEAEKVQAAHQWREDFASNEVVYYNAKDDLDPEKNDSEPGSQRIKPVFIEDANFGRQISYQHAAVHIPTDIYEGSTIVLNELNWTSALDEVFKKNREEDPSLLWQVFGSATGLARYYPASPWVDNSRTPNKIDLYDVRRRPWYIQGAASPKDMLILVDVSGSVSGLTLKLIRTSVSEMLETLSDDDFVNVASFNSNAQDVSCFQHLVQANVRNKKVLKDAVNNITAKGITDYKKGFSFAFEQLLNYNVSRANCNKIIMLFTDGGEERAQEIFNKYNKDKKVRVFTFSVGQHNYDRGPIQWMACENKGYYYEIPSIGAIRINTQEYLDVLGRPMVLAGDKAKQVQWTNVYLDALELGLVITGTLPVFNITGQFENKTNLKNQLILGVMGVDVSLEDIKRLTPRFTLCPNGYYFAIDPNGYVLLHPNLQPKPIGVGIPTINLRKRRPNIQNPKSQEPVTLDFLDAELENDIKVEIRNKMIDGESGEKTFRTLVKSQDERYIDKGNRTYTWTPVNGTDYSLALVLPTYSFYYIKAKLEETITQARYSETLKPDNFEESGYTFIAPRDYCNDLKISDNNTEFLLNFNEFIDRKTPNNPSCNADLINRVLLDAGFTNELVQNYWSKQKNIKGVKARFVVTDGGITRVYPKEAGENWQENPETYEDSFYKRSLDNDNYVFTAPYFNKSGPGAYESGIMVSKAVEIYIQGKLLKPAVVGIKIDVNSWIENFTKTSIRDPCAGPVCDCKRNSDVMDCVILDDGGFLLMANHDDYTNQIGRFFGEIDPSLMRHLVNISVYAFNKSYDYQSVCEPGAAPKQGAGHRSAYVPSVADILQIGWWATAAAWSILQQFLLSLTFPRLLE
T1 sequence (P54289 957-1103 partner limits assumed): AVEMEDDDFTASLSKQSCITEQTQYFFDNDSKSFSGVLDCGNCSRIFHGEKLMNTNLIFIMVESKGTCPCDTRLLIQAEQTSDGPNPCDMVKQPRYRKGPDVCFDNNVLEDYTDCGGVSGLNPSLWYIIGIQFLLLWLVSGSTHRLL
T1 sequence (Q00975 whole entry partner): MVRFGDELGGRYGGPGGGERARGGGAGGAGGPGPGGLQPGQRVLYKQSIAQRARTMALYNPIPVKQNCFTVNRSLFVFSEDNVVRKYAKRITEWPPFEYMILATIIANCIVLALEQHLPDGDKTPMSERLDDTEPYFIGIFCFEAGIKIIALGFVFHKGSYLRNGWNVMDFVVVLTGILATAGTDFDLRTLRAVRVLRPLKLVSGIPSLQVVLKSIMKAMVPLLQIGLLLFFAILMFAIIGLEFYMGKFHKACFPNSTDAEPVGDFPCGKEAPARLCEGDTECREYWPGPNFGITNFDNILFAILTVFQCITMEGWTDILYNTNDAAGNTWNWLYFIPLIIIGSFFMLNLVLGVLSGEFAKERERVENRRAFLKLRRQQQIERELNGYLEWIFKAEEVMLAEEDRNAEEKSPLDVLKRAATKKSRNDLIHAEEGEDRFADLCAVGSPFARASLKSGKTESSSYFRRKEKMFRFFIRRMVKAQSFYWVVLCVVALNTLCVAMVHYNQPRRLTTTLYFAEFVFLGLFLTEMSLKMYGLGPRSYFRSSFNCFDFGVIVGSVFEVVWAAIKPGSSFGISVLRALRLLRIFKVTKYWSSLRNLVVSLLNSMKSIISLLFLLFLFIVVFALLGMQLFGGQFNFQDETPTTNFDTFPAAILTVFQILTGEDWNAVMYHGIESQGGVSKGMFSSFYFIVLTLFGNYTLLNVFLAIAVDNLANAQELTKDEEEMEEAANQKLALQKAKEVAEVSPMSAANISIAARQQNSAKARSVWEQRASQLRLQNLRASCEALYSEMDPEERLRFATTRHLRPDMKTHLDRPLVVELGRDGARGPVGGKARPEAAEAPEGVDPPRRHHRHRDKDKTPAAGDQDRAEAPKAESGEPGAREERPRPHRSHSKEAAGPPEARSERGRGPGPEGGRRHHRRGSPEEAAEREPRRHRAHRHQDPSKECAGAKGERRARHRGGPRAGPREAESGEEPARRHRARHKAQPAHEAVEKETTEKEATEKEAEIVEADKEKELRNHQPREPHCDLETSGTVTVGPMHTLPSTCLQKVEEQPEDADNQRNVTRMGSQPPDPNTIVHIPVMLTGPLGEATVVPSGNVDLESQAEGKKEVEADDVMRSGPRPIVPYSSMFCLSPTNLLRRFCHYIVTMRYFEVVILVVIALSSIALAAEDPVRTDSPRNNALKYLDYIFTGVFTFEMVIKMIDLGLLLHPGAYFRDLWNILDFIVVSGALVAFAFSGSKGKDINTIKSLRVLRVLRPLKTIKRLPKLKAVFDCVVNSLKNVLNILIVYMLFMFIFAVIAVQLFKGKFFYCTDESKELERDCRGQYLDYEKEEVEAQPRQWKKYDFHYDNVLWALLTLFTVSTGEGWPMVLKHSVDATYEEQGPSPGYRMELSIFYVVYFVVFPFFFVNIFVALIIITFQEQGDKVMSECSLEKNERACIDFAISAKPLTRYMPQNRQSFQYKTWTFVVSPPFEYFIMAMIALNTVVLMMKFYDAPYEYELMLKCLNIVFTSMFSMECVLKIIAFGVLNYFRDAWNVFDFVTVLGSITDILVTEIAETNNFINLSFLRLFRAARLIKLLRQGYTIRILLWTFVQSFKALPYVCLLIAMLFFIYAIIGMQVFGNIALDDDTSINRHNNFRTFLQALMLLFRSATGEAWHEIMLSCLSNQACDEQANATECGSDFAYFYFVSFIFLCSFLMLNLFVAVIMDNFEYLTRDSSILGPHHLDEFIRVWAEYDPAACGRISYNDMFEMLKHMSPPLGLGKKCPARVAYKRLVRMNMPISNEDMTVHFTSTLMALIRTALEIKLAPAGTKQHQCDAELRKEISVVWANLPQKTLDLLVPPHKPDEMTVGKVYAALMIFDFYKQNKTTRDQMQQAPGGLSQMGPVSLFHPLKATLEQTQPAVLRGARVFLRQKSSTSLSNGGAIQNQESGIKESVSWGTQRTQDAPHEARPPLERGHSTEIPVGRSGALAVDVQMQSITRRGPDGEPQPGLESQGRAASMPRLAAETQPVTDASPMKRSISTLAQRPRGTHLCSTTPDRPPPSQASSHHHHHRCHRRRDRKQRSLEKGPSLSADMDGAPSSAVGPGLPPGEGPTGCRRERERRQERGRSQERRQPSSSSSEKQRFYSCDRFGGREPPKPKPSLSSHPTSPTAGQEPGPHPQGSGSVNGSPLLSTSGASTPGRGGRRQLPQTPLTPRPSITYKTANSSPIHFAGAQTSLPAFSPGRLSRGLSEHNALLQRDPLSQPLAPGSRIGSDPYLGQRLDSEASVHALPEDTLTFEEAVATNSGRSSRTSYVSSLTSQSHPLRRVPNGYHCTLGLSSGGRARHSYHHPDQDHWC
T1 sequence (P54284 whole entry partner): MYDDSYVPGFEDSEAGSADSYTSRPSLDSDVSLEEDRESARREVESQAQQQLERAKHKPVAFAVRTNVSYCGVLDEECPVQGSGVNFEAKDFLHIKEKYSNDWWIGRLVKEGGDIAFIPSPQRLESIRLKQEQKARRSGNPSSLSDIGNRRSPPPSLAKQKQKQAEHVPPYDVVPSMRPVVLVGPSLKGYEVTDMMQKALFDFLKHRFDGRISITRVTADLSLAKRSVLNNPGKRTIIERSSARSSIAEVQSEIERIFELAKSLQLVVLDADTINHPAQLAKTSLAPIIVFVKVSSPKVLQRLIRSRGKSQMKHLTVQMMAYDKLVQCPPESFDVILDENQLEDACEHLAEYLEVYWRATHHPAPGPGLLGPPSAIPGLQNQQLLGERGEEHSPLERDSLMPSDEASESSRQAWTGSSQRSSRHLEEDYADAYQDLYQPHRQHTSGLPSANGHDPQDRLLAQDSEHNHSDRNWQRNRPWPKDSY
From the text: Example 28 In Vitro Binding of Compounds to Human Recombinant Calcium Ion Channel Cav2.2/β3/α2δ-1
There are four subtypes of the voltage-gated calcium ion channel α2δ subunit, α2δ-1, α2δ-2, α2δ-3 and α2δ-4, in which α2δ-1 is the subtype that mediates chronic neuropathic pain (Field, M. J. et al.; Proc. Natl. Acad. Sci. U.S.A. 2006, 103, 17537-17542). Therefore, the binding strength of a compound to α2δ-1 is a direct indicator for measuring an analgesic effect thereof on the chronic neuropathic pain (Calandre, E. P. et al.; Expert Rev. Neuroether. 2016, 16, 1263-1277).
The in vitro binding strength of the compound of the present application to human recombinant calcium ion channel Cav2.2/β3/α2δ-1 is basically operated according to a reported method (Gee, N. S. et al.; J. Biol. Chem. 1996, 271, 5768-5776; Marais, E. et al.; Mol. Pharmacol. 2001, 59, 1243-1248). CHO cells expressing the human recombinant calcium ion channel Cav2.2/β3/α2δ-1 were used in the test. After routine separation of cell membranes, 3 μg of the cell membranes were added into each well with a modified HEPES/KOH buffer solution (pH 7.4) as a solution of the test system. Then, 5 nM [^3H]gabapentin and the compound to be tested at 6 concentrations (3, 9, 27, 81, 243, and 729 nM) were added, and the test system was incubated at 25° C. for 120 min. Non-specific binding was obtained by replacing the compound to be tested in the above test system with […] gabapentin. After the incubation was completed, the cell membranes were collected by filtration and washed with 50 mM Tris-HCl (pH 7.4), and then the radioactivity of [^3H]gabapentin bound to the cell membranes was tested by a liquid scintillation technology. […] An inhibition rate of the compound of the present application on the binding of the [^3H]gabapentin to the human recombinant calcium ion channel Cav2.2/β3/α2δ-1 was calculated according to the following formula: […]
wherein • I is the radioactivity corresponding to that the compound to be tested and [^3H]gabapentin are simultaneously co-incubated with the human recombinant calcium ion channel Cav2.2/β3/α2δ-1, • I0 is the radioactivity corresponding to co-incubation of [^3H]gabapentin and the human recombinant calcium ion channel Cav2.2/β3/α2δ-1 without adding the compound to be tested into the incubation system, and • IU is the radioactivity corresponding to that 10 μM gabapentin and [^3H]gabapentin are simultaneously co-incubated with the human recombinant calcium ion channel Cav2.2/β3/α2δ-1.
The concentration of the compound to be tested that inhibits 50% of the binding of [^3H]gabapentin to the human recombinant calcium ion channel Cav2.2/β3/α2δ-1 is defined as IC50, and the IC50 is calculated by nonlinear least squares regression analysis using the above inhibition rate (MathIQ™, ID Business Solutions Ltd., UK).

male SD rats = test: Acute toxicity test on rats; conditions: for Observation of clinical symptoms 0.5 h / Observation of clinical symptoms 1 h / Observation of clinical symptoms 2 h / Observation of clinical symptoms 4 h / Observation of clinical symptoms 6 h / Observation of clinical symptoms 24 h: per animal
Protocol: After adapting to the environment for one week, the SD rats were used in a preliminary acute toxicity test. The compounds were newly formulated on the day of the test. […] After being labeled and weighed, the animals were randomly grouped with 2-4 animals in each group. […] Clinical symptoms of each animal were observed and recorded at 0.5 hours, 1 hour, 2 hours, 4 hours, 6 hours and 24 hours after the administration, respectively. Clinical symptom codes were as follows: 0 no abnormality, 1 mild tremor, 2 unsteady gait, 3 prone position, 4 startle reflex, 5 difficult breathing, 6 righting reflex disappeared, 7 eyelid closure, 8 shortness of breath, and x animal death.

[2] = oral gavage 163.8 mg/kg (calculated by free base)
[3] = oral gavage 300 mg/kg (calculated by free base)

CC(C)C[C@H](CN)CC(=O)O [Pregabalin]
clinical effective rate (postherpetic neuralgia): 26%-50
IC50 [1]: 38 nM

Cc1ccc(S(=O)(=O)O)cc1.NCC1(CC(=O)O)CC2C3C=CC(C3)C21 (single isomer, unassigned; (+)) [(+)-I-4 p-toluenesulfonate]
abnormal behaviors at 0-24 h after the administration (male SD rats; [2]): no obvious abnormal behaviors
Observation of clinical symptoms 0.5 h (male SD rats; [2]): 0
Observation of clinical symptoms 1 h (male SD rats; [2]): 0
Observation of clinical symptoms 2 h (male SD rats; [2]): 0
Observation of clinical symptoms 4 h (male SD rats; [2]): 0
Observation of clinical symptoms 6 h (male SD rats; [2]): 0
Observation of clinical symptoms 24 h (male SD rats; [2]): 0
animal death (male SD rats; [3]): no animals are dead
Observation of clinical symptoms 0.5 h (male SD rats; [3]): 0
Observation of clinical symptoms 1 h (male SD rats; [3]): 3
Observation of clinical symptoms 2 h (male SD rats; [3]): 0
Observation of clinical symptoms 6 h (male SD rats; [3]): 0
Observation of clinical symptoms 24 h (male SD rats; [3]): 0
Observation of clinical symptoms 4 h (male SD rats; oral gavage 300 mg/kg (calculated by free base), 300 mg/kg): 3 and 0
